Reference: patent publication US20150225369A1, “DDR2 INHIBITORS FOR THE TREATMENT OF OSTEOARTHRITIS” (Merck Patent GmbH, priority 2012, published 2015)

Biological target: T1, His-tagged human recombinant DDR-2 kinase domain (His-TEV-DDR2 467-855 aa) (Homo sapiens, UniProt Q16832)
T1 construct: His-TEV-DDR2 467-855 aa
T1 sequence (Q16832 467-855): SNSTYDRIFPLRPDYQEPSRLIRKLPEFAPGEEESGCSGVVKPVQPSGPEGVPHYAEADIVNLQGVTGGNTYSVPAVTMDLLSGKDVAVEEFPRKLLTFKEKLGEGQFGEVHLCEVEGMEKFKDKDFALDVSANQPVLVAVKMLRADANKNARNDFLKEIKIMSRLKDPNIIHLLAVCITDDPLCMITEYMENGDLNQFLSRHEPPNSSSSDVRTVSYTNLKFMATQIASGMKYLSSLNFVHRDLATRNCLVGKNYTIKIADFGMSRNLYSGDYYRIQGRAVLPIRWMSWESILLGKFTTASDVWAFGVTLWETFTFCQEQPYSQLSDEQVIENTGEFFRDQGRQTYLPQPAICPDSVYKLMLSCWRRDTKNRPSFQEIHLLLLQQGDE
Experiment: Autophosphorylation assay for biochemical activity testing of DDR2 (HTRF)
Conditions: 4 nM DDR2 kinase domain, 150 μM ATP, 150 min at 22° C.
In short: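 Phospho-tyrosine was detected by HTRF between XL665 anti-6His and cryptate anti-phosphotyrosine PT66 antibodies, using the emission ratio. Inhibition was referenced to the inhibitor-free reaction.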

Row | Structure (SMILES) | IC50 [nM]
1 | CNC(=O)c1cc(Oc2ccc(CNC(=O)Nc3cc(C)cnc3Cl)cc2)ccn1 [compound 22] | 710
2 | CNC(=O)c1cc(Oc2ccc(CNC(=O)Nc3ccc(OC)nc3)cc2)ccn1 [compound 17] | 5600
3 | CNC(=O)c1cc(Oc2ccc(COC(=O)Nc3cc(C(F)(F)F)ccn3)cc2C)ccn1 [compound 4] | 41
4 | Cc1cc(Oc2ccc(CNC(=O)Nc3cnc4ccccc4c3)cc2C)ccn1 [compound 32] | 7100
5 | CNC(=O)c1cc(Oc2ccc(CNC(=O)Nc3cnc4ccccc4c3)cc2)ccn1 [compound 10] | 290
6 | CNC(=O)c1cc(Oc2ccc(CNC(=O)Nc3cccnc3OC)cc2)ccn1 [compound 4] | 1600
7 | CNC(=O)c1cc(Oc2ccc(CNC(=O)Nc3cc(C(F)(F)F)cn(Cc4ccccc4)c3=O)cc2)ccn1 [compound 12] | 260
8 | COc1ncc(C)cc1NC(=O)NCc1ccc(Oc2ccnc(C)c2)c(C)c1 [compound 31] | 230

Same assay, conditions: biochemical DDR2 autophosphorylation

Row | Structure (SMILES) | IC50 [nM]
9 | CNC(=O)c1cc(Oc2ccc(CNC(=O)Nc3cccnc3OC)cc2)ccn1 [compound 87, 4-{4-[3-(2-Methoxy-pyridin-3-yl)-ureidomethyl]-phenoxy}-pyridine-2-carboxylic acid methylamide] | 1600
10 | CNC(=O)c1cc(Oc2ccc(CNC(=O)Nc3cc(C)c(Cl)cc3OCCN3CCOCC3)cc2C)ccn1 [compound 138, 4-(4-{3-[4-Chloro-5-methyl-2-(2-morpholin-4-yl-ethoxy)-phenyl]-ureidomethyl}-2-methyl-phenoxy)-pyridine-2-carboxylic acid methylamide] | 310
11 | CNC(=O)c1cc(Oc2ccc(CNC(=O)Nc3cc(C(F)(F)F)ccc3OCC(=O)OC)cc2)ccn1 [compound 92, (2-{3-[4-(2-Methylcarbamoyl-pyridin-4-yloxy)-benzyl]-ureido}-4-trifluoromethyl-phenoxy)-acetic acid methyl ester] | 38
12 | COc1cc(Cl)c(C)cc1NC(=O)NCc1ccc(Oc2ccnc3cc(C)oc23)c(C)c1 [compound 252, 1-(4-Chloro-2-methoxy-5-methyl-phenyl)-3-[3-methyl-4-(2-methyl-furo[3,2-b]pyridin-7-yloxy)-benzyl]-urea] | 750
13 | O=C(NCc1ccc(Oc2ccncc2)cc1)Nc1cc(Cl)cc(Cl)c1 [compound 57, 1-(3,5-Dichloro-phenyl)-3-[4-(pyridin-4-yloxy)-benzyl]-urea] | 1200
14 | CNC(=O)c1cc(Oc2ccc(CNC(=O)Nc3cc(C(F)(F)F)c(Cl)cc3OCCN(C)C)cc2C)ccn1 [compound 152, 4-(4-{3-[4-Chloro-2-(2-dimethylamino-ethoxy)-5-trifluoromethyl-phenyl]-ureidomethyl}-2-methyl-phenoxy)-pyridine-2-carboxylic acid methylamide] | 25
15 | Cc1ccc(NC(=O)NCc2ccc(Oc3ccncc3)cc2)cc1Cl [compound 27] | 740
16 | CCc1cccc(NC(=O)NCc2ccc(Oc3ccncc3)cc2)c1 [compound 61, 1-(3-Ethyl-phenyl)-3-[4-(pyridin-4-yloxy)-benzyl]-urea] | 490
17 | COc1ccc(Cl)cc1NC(=O)NCc1ccc(Oc2ccncc2)cc1 [compound 32] | 87
18 | CNC(=O)c1cc(Oc2ccc(CNC(=O)Nc3cc(C)ccc3OC)cc2)ccn1 [compound 75, 4-{4-[3-(2-Methoxy-5-methyl-phenyl)-ureidomethyl]-phenoxy}-pyridine-2-carboxylic acid methylamide] | 69
19 | O=C(NCc1ccc(Oc2ccncc2)cc1)Nc1cc(C(F)(F)F)cc(C(F)(F)F)c1 [compound 22] | 560
20 | CNC(=O)c1cc(Oc2ccc(CNC(=O)Nc3cc(C)c(Cl)cc3OC)cc2F)ccn1 [compound 218, 4-{4-[3-(4-Chloro-2-methoxy-5-methyl-phenyl)-ureidomethyl]-2-fluoro-phenoxy}-pyridine-2-carboxylic acid methylamide] | 150
21 | CNC(=O)c1cc(Oc2ccc(CNC(=O)Nc3cc(OC)ccc3OC)cc2)ccn1 [compound 20] | 98
22 | CNC(=O)c1cc(Oc2ccc(CNC(=O)Nc3cccnc3)cc2)ccn1 [compound 88, 4-{4-[(3-Pyridin-3-yl-ureido)-methyl]-phenoxy}-pyridine-2-carboxylic acid methylamide] | 15000
23 | CSc1ccc(NC(=O)NCc2ccc(Oc3ccncc3)cc2)cc1 [compound 51, 1-(4-Methylsulfanyl-phenyl)-3-[4-(pyridin-4-yloxy)-benzyl]-urea] | 10000
24 | CNC(=O)c1cc(Oc2ccc(CNC(=O)Nc3cc(C(F)(F)F)c(Cl)cc3OCCN3CCOCC3)cc2)ccn1 [compound 131, 4-(4-{3-[4-Chloro-2-(2-morpholin-4-yl-ethoxy)-5-trifluoromethyl-phenyl]-ureidomethyl}-phenoxy)-pyridine-2-carboxylic acid methylamide] | 96
25 | CNC(=O)c1cc(Oc2ccc(CNC(=O)Nc3ccncc3)cc2)ccn1 [compound 90, 4-{4-[(3-Pyridin-4-yl-ureido)-methyl]-phenoxy}-pyridine-2-carboxylic acid methylamide] | ≥ 100000

Row | Structure (SMILES) | IC50 [nM]
26 | CNC(=O)c1cc(Oc2ccc(CNC(=O)Nc3cc(C(F)(F)F)ccc3OCCN3CCOCC3)cc2)ccn1 [compound 109, 4-(4-{3-[2-(2-Morpholin-4-yl-ethoxy)-5-trifluoromethyl-phenyl]-ureidomethyl}-phenoxy)-pyridine-2-carboxylic acid methylamide] | 72
27 | Cc1cc(C)cc(NC(=O)NCc2ccc(Oc3ccncc3)cc2)c1 [compound 44, 1-(3,5-Dimethyl-phenyl)-3-[4-(pyridin-4-yloxy)-benzyl]-urea] | 1800
28 | COc1ccccc1NC(=O)NCc1ccc(Oc2ccncc2)cc1 [compound 36, 1-(2-Methoxy-phenyl)-3-[4-(pyridin-4-yloxy)-benzyl]-urea] | 1700
29 | O=C(Nc1ccc(Cl)c(C(F)(F)F)c1)NC1(c2ccc(Oc3ccncc3)cc2)CC1 [compound 68, 1-(4-Chloro-3-trifluoromethyl-phenyl)-3-{1-[4-(pyridin-4-yloxy)-phenyl]-cyclopropyl}-urea] | 4600
30 | O=C(NCc1ccc(Oc2ccncc2)cc1)Nc1ccc(Cl)c(Cl)c1 [compound 38, 1-(3,4-Dichloro-phenyl)-3-[4-(pyridin-4-yloxy)-benzyl]-urea] | 2100
31 | Cc1cc(NC(=O)NCc2ccc(Oc3ccncn3)c(C)c2)c(OCCN(C)C)cc1Cl [compound 250, 1-[4-Chloro-2-(2-dimethylamino-ethoxy)-5-methyl-phenyl]-3-[3-methyl-4-(pyrimidin-4-yloxy)-benzyl]-urea] | 1200
32 | CNC(=O)c1cc(Oc2ccc(CNC(=O)Nc3cc(C)c(Cl)cc3OCCCCN(C)C)cc2C)ccn1 [compound 165, 4-(4-{3-[4-Chloro-2-(4-dimethylamino-butoxy)-5-methyl-phenyl]-ureidomethyl}-2-methyl-phenoxy)-pyridine-2-carboxylic acid methylamide] | 210
33 | COc1cccc(NC(=O)NCc2ccc(Oc3ccncc3)cc2)c1 [compound 45, 1-(3-Methoxy-phenyl)-3-[4-(pyridin-4-yloxy)-benzyl]-urea] | 4000
34 | O=C(NCc1ccc(Oc2ccncc2)cc1)Nc1ccc(OC(F)(F)F)cc1 [compound 55, 1-[4-(Pyridin-4-yloxy)-benzyl]-3-(4-trifluoromethoxy-phenyl)-urea] | 7500
35 | CNC(=O)c1cc(Oc2ccc(CNC(=O)Nc3cc(C)c(Cl)cc3OCCCCN(C)C)cc2)ccn1 [compound 161, 4-(4-{3-[4-Chloro-2-(4-dimethylamino-butoxy)-5-methyl-phenyl]-ureidomethyl}-phenoxy)-pyridine-2-carboxylic acid methylamide] | 160
36 | CNC(=O)c1cc(Oc2ccc(CNC(=O)Nc3cc(Cl)c(C)cc3OCCN3CCCC3)cc2)ccn1 [compound 173, 4-(4-{3-[5-Chloro-4-methyl-2-(2-pyrrolidin-1-yl-ethoxy)-phenyl]-ureidomethyl}-phenoxy)-pyridine-2-carboxylic acid methylamide] | 260
37 | CNC(=O)c1cc(Oc2ccc(CNC(=O)Nc3cc(C(F)(F)F)ccc3OCCO)cc2)ccn1 [compound 197, 4-(4-{3-[2-(2-Hydroxy-ethoxy)-5-trifluoromethyl-phenyl]-ureidomethyl}-phenoxy)-pyridine-2-carboxylic acid methylamide] | 96
38 | CNC(=O)c1cc(Oc2ccc(CNC(=O)Nc3cc(C(F)(F)F)ccc3OC)c(C)c2)ccn1 [compound 105, 4-{4-[3-(2-Methoxy-5-trifluoromethyl-phenyl)-ureidomethyl]-3-methyl-phenoxy}-pyridine-2-carboxylic acid methylamide] | 180
39 | Cc1cc2nccc(Oc3ccc(CNC(=O)Nc4ccccc4)cc3)c2o1 [compound 249, 1-[4-(2-Methyl-furo[3,2-b]pyridin-7-yloxy)-benzyl]-3-phenyl-urea] | 650
40 | O=C(NCc1ccc(Oc2ccncc2)cc1)Nc1cc(Cl)c(Cl)cc1Cl [compound 2] | 1400
41 | COc1ccc(NC(=O)NCc2ccc(Oc3ccncc3)cc2)cc1Cl [compound 60, 1-(3-Chloro-4-methoxy-phenyl)-3-[4-(pyridin-4-yloxy)-benzyl]-urea] | 2800
42 | CC(=O)c1cccc(NC(=O)NCc2ccc(Oc3ccncc3)cc2)c1 [compound 7] | 10000
